The results in this text go back to patent publication US12492181B2, “Gem-disubstituted piperidine melanocortin subtype-2 receptor (MC2R) antagonists and uses thereof” (Crinetics Pharmaceuticals, Inc., priority 2019, dated 2025).

The target in this assay is T1, hMC2 receptor (crude hMC2R membranes from CRE-bla-CHO-K1 cells stably expressing hMC2 receptor and hMRAP accessory protein) (Homo sapiens, UniProt Q01718).
T1 construct: crude membrane fractions
T1 sequence (Q01718 whole entry): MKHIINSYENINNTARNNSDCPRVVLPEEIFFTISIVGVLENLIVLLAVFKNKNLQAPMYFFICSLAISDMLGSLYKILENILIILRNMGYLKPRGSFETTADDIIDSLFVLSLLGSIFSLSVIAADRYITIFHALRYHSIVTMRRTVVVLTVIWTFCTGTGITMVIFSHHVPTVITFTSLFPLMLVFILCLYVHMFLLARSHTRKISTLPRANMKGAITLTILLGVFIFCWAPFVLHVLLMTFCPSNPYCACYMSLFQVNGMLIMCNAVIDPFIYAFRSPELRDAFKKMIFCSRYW
T1 sequence (Q8TCY5 whole entry partner): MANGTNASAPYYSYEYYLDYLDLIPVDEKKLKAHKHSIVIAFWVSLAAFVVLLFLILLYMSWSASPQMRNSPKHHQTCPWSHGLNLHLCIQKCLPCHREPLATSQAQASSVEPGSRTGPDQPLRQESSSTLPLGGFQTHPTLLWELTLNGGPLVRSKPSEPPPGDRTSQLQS
The experiment in a line: hMC2 membrane binding assay ([125I]ACTH (1-39) Tyr23, SPA). To be noted: displacement of 0.2 nM [125I]ACTH (1-39) Tyr23 from hMC2R membranes, 1.5 hours at room temperature; read-out: MC2R binding potency. An outline of the steps:
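Crude membranes from CRE-bla-CHO-K1 cells stably co-expressing hMC2R and hMRAP, premixed with WGA PVT SPA beads in pH 7.4 HEPES buffer (5 mM MgCl2, 1 mM CaCl2, 0.20% BSA, protease inhibitors). Compounds compete with [125I]ACTH(1-39) Tyr23, read by scintillation. Ki from non-linear regression.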
Take `CO[C@@H]1CN(C)C[C@@H]1NC(=O)C1(c2ccc(-c3cccn3C)nc2)CCN(c2ccc(C(F)(F)F)cc2C#N)CC1` (racemic) [Compound 1-267, rac-1-[2-cyano-4-(trifluoromethyl)phenyl]-N-[(3S,4R)-4-methoxy-1-methylpyrrolidin-3-yl]-4-[6-(1-methyl-1H-pyrrol-2-yl)pyridin-3-yl]piperidine-4-carboxamide]: the Ki is less than 10 nM.

As to `CN1CC[C@@H](NC(=O)C2(c3ccc(-c4cccc5c4OCC5)nc3)CCN(c3ccc(C(F)(F)F)cc3C#N)CC2)C1` [Compound 1-53, 1-[2-cyano-4-(trifluoromethyl)phenyl]-4-[6-(2,3-dihydro-1-benzofuran-7-yl)pyridin-3-yl]-N-[(3R)-1-methylpyrrolidin-3-yl]piperidine-4-carboxamide], the Ki was 10 to 100 nM. On to `CCOc1ncccc1-c1ccc(C2(NC(=O)C3CN(C)C3)CCN(c3ccc(Cl)cc3C#N)CC2)cn1` [Compound 2-37, N-[1-(4-chloro-2-cyanophenyl)-4-{2′-ethoxy-[2,3′-bipyridin]-5-yl}piperidin-4-yl]-1-methylazetidine-3-carboxamide], for which the Ki was less than 10 nM. Turning to `CN1C[C@H](NC(=O)C2(c3ccc(-c4cccn4C)nc3)CCN(c3ccc(C(F)(F)F)cc3C#N)CC2)[C@@H](O)C1` [Compound 1-270, 1-[2-cyano-4-(trifluoromethyl)phenyl]-N-[(3S,4S)-4-hydroxy-1-methylpyrrolidin-3-yl]-4-[6-(1-methyl-1H-pyrrol-2-yl)pyridin-3-yl]piperidine-4-carboxamide], the Ki is less than 10 nM. As for `CCOc1ccc(F)cc1-c1ccc(C2(C(=O)N[C@@H]3CCN(C)C3)CCN(c3ccc(C(F)(F)F)cc3C#N)CC2)cn1` [Compound 1-69, 1-[2-cyano-4-(trifluoromethyl)phenyl]-4-[6-(2-ethoxy-5-fluorophenyl)pyridin-3-yl]-N-[(3R)-1-methylpyrrolidin-3-yl]piperidine-4-carboxamide], the Ki was less than 10 nM.

On to `COc1ccc(F)cc1-c1ncc(C2(C(=O)N[C@H]3CCN(C)C3)CCN(c3ccc(C(F)(F)F)cc3F)CC2)cc1F` [Compound 1-204, 1-[2-fluoro-4-(trifluoromethyl)phenyl]-4-[5-fluoro-6-(5-fluoro-2-methoxyphenyl)pyridin-3-yl]-N-[(3S)-1-methylpyrrolidin-3-yl]piperidine-4-carboxamide], for which the Ki is less than 10 nM. Consider `CCOc1ncccc1-c1ncc(C2(C(=O)N[C@H]3CCN(C)C3)CCN(c3ccc(C(F)(F)F)cc3F)CC2)cc1F` [Compound 1-201, (S)-4-(2′-ethoxy-3-fluoro-[2,3′-bipyridin]-5-yl)-1-(2-fluoro-4-(trifluoromethyl)phenyl)-N-(1-methylpyrrolidin-3-yl)piperidine-4-carboxamide], for which the Ki was less than 10 nM. `COc1ccccc1-c1ncc(C2(C(=O)N[C@@H]3CCN(C)C3)CCN(c3ccc(C(F)(F)F)cc3C#N)CC2)cc1F` [Compound 1-126, 1-[2-cyano-4-(trifluoromethyl)phenyl]-4-[5-fluoro-6-(2-methoxyphenyl)pyridin-3-yl]-N-[(3R)-1-methylpyrrolidin-3-yl]piperidine-4-carboxamide]: the Ki was less than 10 nM.

Turning to `CCOc1ncccc1-c1ccc(C2(C(=O)N[C@H]3CCN(C)C3)CCN(c3ccc(C(F)(F)F)cn3)CC2)cn1` [Compound 1-35, 4-{2′-ethoxy-[2,3′-bipyridin]-5-yl}-N-[(3S)-1-methylpyrrolidin-3-yl]-1-[5-(trifluoromethyl)pyridin-2-yl]piperidine-4-carboxamide], the Ki is less than 10 nM. For the molecule `C[C@@H](CN(C)C)NC(=O)C1(c2ccc(-c3cccn3C)nc2)CCN(c2ccc(C(F)(F)F)cc2C#N)CC1` [Compound 1-261, 1-[2-cyano-4-(trifluoromethyl)phenyl]-N-[(2S)-1-(dimethylamino)propan-2-yl]-4-[6-(1-methyl-1H-pyrrol-2-yl)pyridin-3-yl]piperidine-4-carboxamide], the Ki was less than 10 nM. Regarding `CCOc1ccccc1-c1ccc(C2(NC(=O)CN(C)C)CCN(c3ccc(Cl)cc3C#N)CC2)cn1` [Compound 2-31, N-[1-(4-chloro-2-cyanophenyl)-4-[6-(2-ethoxyphenyl)pyridin-3-yl]piperidin-4-yl]-2-(dimethylamino)acetamide], the Ki is less than 10 nM. With `CCOc1ncccc1-c1ncc(C2(C(=O)N[C@H]3CCN(C)C3)CCN(c3ccc(C(F)(F)F)cc3Cl)CC2)cc1F` [Compound 1-203, 1-[2-chloro-4-(trifluoromethyl)phenyl]-4-{2′-ethoxy-3-fluoro-[2,3′-bipyridin]-5-yl}-N-[(3S)-1-methylpyrrolidin-3-yl]piperidine-4-carboxamide], the Ki is less than 10 nM. Consider `COc1ccccc1-c1ccc(C2(C(=O)NC[C@@H]3C[C@@H](F)CN3)CCN(c3ccc(C(F)(F)F)cc3C#N)CC2)cn1` [Compound 1-247, 1-[2-cyano-4-(trifluoromethyl)phenyl]-N-{[(2S,4R)-4-fluoropyrrolidin-2-yl]methyl}-4-[6-(2-methoxyphenyl)pyridin-3-yl]piperidine-4-carboxamide], for which the Ki was less than 10 nM. For `C[C@@H](CN(C)C)NC(=O)C1(c2cnc(-c3cccn3C)c(F)c2)CCN(c2ccc(C(F)(F)F)cc2C#N)CC1` [Compound 1-324, 1-[2-cyano-4-(trifluoromethyl)phenyl]-N-[(2S)-1-(dimethylamino)propan-2-yl]-4-[5-fluoro-6-(1-methyl-1H-pyrrol-2-yl)pyridin-3-yl]piperidine-4-carboxamide], the Ki is less than 10 nM. As to `CC(C)CCn1nccc1-c1ccc(C2(C(=O)N[C@@H]3CCN(C)C3)CCN(c3ccc(C(F)(F)F)cc3C#N)CC2)cn1` [Compound 1-70, 1-[2-cyano-4-(trifluoromethyl)phenyl]-4-{6-[1-(3-methylbutyl)-1H-pyrazol-5-yl]pyridin-3-yl}-N-[(3R)-1-methylpyrrolidin-3-yl]piperidine-4-carboxamide], the Ki was 10 to 100 nM. On to `CCOc1ncccc1-c1ccc(C2(C(=O)NC[C@H](CO)N(C)C)CCN(c3ccc(C(F)(F)F)cc3C#N)CC2)cn1` [Compound 1-45, 1-[2-cyano-4-(trifluoromethyl)phenyl]-N-[(2R)-2-(dimethylamino)-3-hydroxypropyl]-4-{2′-ethoxy-[2,3′-bipyridin]-5-yl}piperidine-4-carboxamide], for which the Ki is less than 10 nM.

Turning to `COc1ccccc1-c1ncc(C2(C(=O)N[C@H]3CCN(C)C3)CCN(c3ccc(C(F)(F)F)cc3C#N)CC2)cc1F` [Compound 1-127, 1-[2-cyano-4-(trifluoromethyl)phenyl]-4-[5-fluoro-6-(2-methoxyphenyl)pyridin-3-yl]-N-[(3S)-1-methylpyrrolidin-3-yl]piperidine-4-carboxamide], the Ki is less than 10 nM. To `CCOc1ccccc1-c1ccc(C2(C(=O)N[C@H]3CCN(C)C3)CCN(c3ccc(C(F)(F)F)cc3Cl)CC2)cn1` [Compound 1-97, 1-[2-chloro-4-(trifluoromethyl)phenyl]-4-[6-(2-ethoxyphenyl)pyridin-3-yl]-N-[(3S)-1-methylpyrrolidin-3-yl]piperidine-4-carboxamide] belongs less than 10 nM; to `CCOc1ccccc1-c1ccc(C2(C(=O)N[C@H]3CCN(C)C3)CCN(c3ccc(C(F)(F)F)cc3F)CC2)nn1` [Compound 1-174, 4-[6-(2-ethoxyphenyl)pyridazin-3-yl]-1-[2-fluoro-4-(trifluoromethyl)phenyl]-N-[(3S)-1-methylpyrrolidin-3-yl]piperidine-4-carboxamide], less than 10 nM. Regarding `CCOc1ncccc1-c1ccc(C2(C(=O)NCCN(C)C)CCN(c3ccc(C(F)(F)F)cc3F)CC2)cn1` [Compound 1-222, N-[2-(dimethylamino)ethyl]-4-{2′-ethoxy-[2,3′-bipyridin]-5-yl}-1-[2-fluoro-4-(trifluoromethyl)phenyl]piperidine-4-carboxamide], the Ki is less than 10 nM. For the molecule `COc1ccccc1-c1ncc(C2(NC(=O)O[C@H]3CCN(C)C3)CCN(c3ccc(C(F)(F)F)cc3C#N)CC2)cc1F` [Compound 2-49, (3S)-1-methylpyrrolidin-3-yl N-{1-[2-cyano-4-(trifluoromethyl)phenyl]-4-[5-fluoro-6-(2-methoxyphenyl)pyridin-3-yl]piperidin-4-yl}carbamate], the Ki is less than 10 nM.

Regarding `COCc1ccccc1-c1ccc(C2(C(=O)N[C@@H]3CCN(C)C3)CCN(c3ccc(C(F)(F)F)cc3C#N)CC2)cn1` [Compound 1-79, 1-[2-cyano-4-(trifluoromethyl)phenyl]-4-{6-[2-(methoxymethyl)phenyl]pyridin-3-yl}-N-[(3R)-1-methylpyrrolidin-3-yl]piperidine-4-carboxamide], the Ki is less than 10 nM. As to `COc1ccccc1-c1ccc(C2(C(=O)NC[C@@H]3CCN3)CCN(c3ccc(C(F)(F)F)cc3C#N)CC2)cn1` [Compound 1-213, N-{[(2S)-azetidin-2-yl]methyl}-1-[2-cyano-4-(trifluoromethyl)phenyl]-4-[6-(2-methoxyphenyl)pyridin-3-yl]piperidine-4-carboxamide], the Ki is less than 10 nM. Consider `CCOc1ccccc1-c1ncc(C2(C(=O)NCCNC)CCN(c3ccc(C(F)(F)F)cc3F)CC2)cc1F` [Compound 1-290, 4-[6-(2-ethoxyphenyl)-5-fluoropyridin-3-yl]-1-[2-fluoro-4-(trifluoromethyl)phenyl]-N-[2-(methylamino)ethyl]piperidine-4-carboxamide], for which the Ki was less than 10 nM.

As to `COc1ccccc1-c1ccc(C2(C(=O)N[C@H]3CCN(C)C3)CCN(c3ccc(Cl)cc3C#N)CC2)cn1` [Compound 1-91, 1-(4-chloro-2-cyanophenyl)-4-[6-(2-methoxyphenyl)pyridin-3-yl]-N-[(3S)-1-methylpyrrolidin-3-yl]piperidine-4-carboxamide], the Ki was less than 10 nM.
